Drawing on PubChem BioAssay (NCI), this text covers TGI for eight compounds.

Molecules are shown by their SMILES.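 A five-concentration, 48-hour dose response in 96-well plates underlies each endpoint, interpolated linearly between surrounding concentrations. The concentration for full growth arrest is given as TGI.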 A value given as a limit tells only on which side of the number the result lay.

Some test systems named below: UACC-62 melanoma; HL-60(TB) leukemia; MDA-MB-231 breast; SNB-19 CNS; MDA-MB-435; SF-539 CNS; U251 CNS; HCT-116 colon; NCI-H23 lung; MALME-3M melanoma; SNB-75 CNS; NCI-H522 lung; DU-145 prostate; RXF 393 renal; MDA-N; SK-MEL-2 melanoma; UO-31 renal; EKVX NSCLC; CAKI-1 renal.
Experiment in all cases: NCI-60 cell line screen, 48 h

On to `C=CCn1c(C23CC4CC(CC(C4)C2)C3)n[nH]c1=S`, for which the TGI is above 100 µM in the experiment with UACC-62 melanoma; 53.9 µM in the experiment with HL-60(TB) leukemia; above 100 µM with MDA-MB-231 breast; above 100 µM in the experiment on SNB-19 CNS; above 100 µM with MDA-MB-435; above 100 µM in the experiment with SF-539 CNS. For the same compound, the TGI in the experiment with U251 CNS, with HCT-116 colon, with NCI-H23 lung, in the experiment with MALME-3M melanoma, with SNB-75 CNS and with NCI-H522 lung was above 100 µM each time. Besides, the TGI with DU-145 prostate, in the experiment with RXF 393 renal, in the experiment with MDA-N, in the experiment with SK-MEL-2 melanoma and in the experiment on UO-31 renal was above 100 µM in each case.
Turning to `COc1ccc(N=C2C(=Nc3ccc(OC)cc3)N(S(=O)(=O)c3ccccc3)C(=S)N2c2ccccc2)cc1`, the TGI with UACC-62 melanoma, with MDA-MB-231 breast, in the experiment with SNB-19 CNS, with MDA-MB-435, with SF-539 CNS and with U251 CNS was above 100 µM in each case. The TGI in the experiment with EKVX NSCLC, with NCI-H23 lung, with MALME-3M melanoma, in the experiment on SNB-75 CNS, in the experiment on NCI-H522 lung and with DU-145 prostate was above 100 µM each time. Further, the TGI with RXF 393 renal, in the experiment on CAKI-1 renal, with MDA-N, in the experiment with SK-MEL-2 melanoma and in the experiment with UO-31 renal was above 100 µM throughout.
As for `CCCCOC(=O)NC(Nc1ccc(S(=O)(=O)Nc2ccc(OC)nn2)cc1)(C(F)(F)F)C(F)(F)F`, the TGI in the experiment on UACC-62 melanoma, in the experiment on HL-60(TB) leukemia, in the experiment on MDA-MB-231 breast, with SNB-19 CNS, in the experiment on MDA-MB-435 and in the experiment on SF-539 CNS was above 100 µM each time. Also, the TGI in the experiment on U251 CNS, in the experiment with EKVX NSCLC, in the experiment on HCT-116 colon, with NCI-H23 lung, in the experiment with MALME-3M melanoma and in the experiment on DU-145 prostate was above 100 µM in each case. Besides, the TGI in the experiment with RXF 393 renal, in the experiment with CAKI-1 renal, in the experiment with MDA-N and with UO-31 renal was above 100 µM in each case.
For the compound `C=CCCCC1SC2=C(CC)CCCN2C1=O` (stereo not given), the TGI in the experiment with UACC-62 melanoma, in the experiment with HL-60(TB) leukemia, in the experiment with MDA-MB-231 breast, with SNB-19 CNS, with MDA-MB-435 and with SF-539 CNS was above 100 µM each time. In addition, the TGI with U251 CNS, in the experiment with EKVX NSCLC, in the experiment with HCT-116 colon, in the experiment with NCI-H23 lung, with MALME-3M melanoma and in the experiment on NCI-H522 lung was above 100 µM in each case. In addition, the TGI in the experiment with DU-145 prostate, with RXF 393 renal, with CAKI-1 renal, in the experiment on MDA-N, with SK-MEL-2 melanoma and with UO-31 renal was above 100 µM throughout.
`N#Cc1nc(COCc2ccccc2)oc1N`: the TGI in the experiment with UACC-62 melanoma, with MDA-MB-231 breast, in the experiment on SNB-19 CNS, in the experiment on MDA-MB-435, in the experiment with SF-539 CNS and in the experiment on U251 CNS was above 100 µM throughout. The TGI with EKVX NSCLC, in the experiment on HCT-116 colon, in the experiment on NCI-H23 lung, with MALME-3M melanoma, in the experiment on SNB-75 CNS and in the experiment on NCI-H522 lung was above 100 µM throughout. Further, the TGI with DU-145 prostate, with RXF 393 renal, in the experiment with CAKI-1 renal, in the experiment on MDA-N, in the experiment on SK-MEL-2 melanoma and with UO-31 renal was above 100 µM each time.
Regarding `COC(=O)[C@]12CSC[C@H]1C[C@H](c1ccccc1OC)N2`, the TGI with UACC-62 melanoma, in the experiment on MDA-MB-231 breast, in the experiment with SNB-19 CNS, in the experiment on MDA-MB-435, in the experiment on SF-539 CNS and with U251 CNS was above 100 µM in each case. Further, the TGI in the experiment on EKVX NSCLC, with HCT-116 colon, in the experiment with NCI-H23 lung, in the experiment on MALME-3M melanoma, in the experiment on SNB-75 CNS and in the experiment on NCI-H522 lung was above 100 µM each time. Further, the TGI in the experiment with DU-145 prostate, with RXF 393 renal, in the experiment with CAKI-1 renal, in the experiment on MDA-N, in the experiment on SK-MEL-2 melanoma and with UO-31 renal was above 100 µM throughout.
For the compound `CCOP(=O)(OCC)C(N)Cc1ccc(OC)c(OC)c1` (stereo not given), the TGI in the experiment with UACC-62 melanoma, in the experiment with HL-60(TB) leukemia, in the experiment on MDA-MB-231 breast, in the experiment on SNB-19 CNS, with MDA-MB-435 and in the experiment on SF-539 CNS was above 100 µM each time. Further, the TGI with U251 CNS, with HCT-116 colon, in the experiment with NCI-H23 lung, in the experiment on MALME-3M melanoma, in the experiment on SNB-75 CNS and in the experiment on NCI-H522 lung was above 100 µM throughout. Moreover, the TGI in the experiment on DU-145 prostate, in the experiment with RXF 393 renal, in the experiment with CAKI-1 renal, with MDA-N, in the experiment on SK-MEL-2 melanoma and in the experiment with UO-31 renal was above 100 µM in each case.
In the case of `CSC1=NC(C(N)=O)C(N)N1C` (stereo not given), the TGI in the experiment on UACC-62 melanoma, in the experiment on HL-60(TB) leukemia, in the experiment on MDA-MB-231 breast, with SNB-19 CNS, in the experiment on MDA-MB-435 and in the experiment with SF-539 CNS was above 100 µM throughout. Also, the TGI in the experiment with U251 CNS, in the experiment with EKVX NSCLC, in the experiment on HCT-116 colon, with NCI-H23 lung, in the experiment with MALME-3M melanoma and in the experiment on NCI-H522 lung was above 100 µM throughout. Besides, the TGI with DU-145 prostate, in the experiment on RXF 393 renal, in the experiment with CAKI-1 renal, with MDA-N, with SK-MEL-2 melanoma and in the experiment with UO-31 renal was above 100 µM throughout.
